Experimental data published in paper PMC3656107, “Polymorphisms in the F8 Gene and MHC-II Variants as Risk Factors for the Development of Inhibitory Anti-Factor VIII Antibodies during the Treatment of Hemophilia A: A Computational Assessment” (PLoS Computational Biology, 2013).

Assays:
MHC-II DRB1*11:01 [1] = biological target: T1, MHC-II DRB1*11:01 (Homo sapiens, UniProt P01903+P01911, A100R/A169T/A87E/I96F/K41T/L162R/M171V/P40S/Q125H/Q178H/Q39Y/Q99D/R42S/S66Y/T262R/V115G/W38E); assay: Cell-free REVEAL class II stability assay; details: half-life of peptide-MHC-II complex (h, capped at 120) x Binding Score / 100, conformational ELISA
In short: (§1)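 Readout is a conformational ELISA with anti-HLA antibody, scoring assembly or percent denaturation of peptide–MHC-II complexes sampled at timed points. Association ran 96 hr at 10°C. The reported stability score is half-life multiplied by Binding Score, divided by 100.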

MHC-II DRB1*07:01 [2] = biological target: T2, MHC-II DRB1*07:01 (Homo sapiens, UniProt P01903+P01911, A100R/A102G/A103Q/D57E/D86V/E43K/F76Y/K127E/L162R/M171V/P40G/Q125H/Q99D/R33Q/R42Y/R54Q/S133A/S66F/T210M/V115G/Y107V/Y59L/Y89S); assay: Cell-free REVEAL class II stability assay; details: half-life of peptide-MHC-II complex (h, capped at 120) x Binding Score / 100, conformational ELISA
In short: as §1

MHC-II DRB1*04:01 [3] = biological target: T3, MHC-II DRB1*04:01 (Homo sapiens, UniProt P01903+P01911, A100K/A169T/F76Y/I96L/K127E/L162R/M171V/N62H/P40V/Q125Y/R42H/S133A/S149N/S66Y/V115G/V209L/W38E); assay: Cell-free REVEAL class II stability assay; details: half-life of peptide-MHC-II complex (h, capped at 120) x Binding Score / 100, conformational ELISA
In short: as §1

MHC-II DRB1*03:01 [4] = biological target: T4, MHC-II DRB1*03:01 (Homo sapiens, UniProt P01903+P01911, A100K/A102G/A103R/A169T/F55Y/I96L/K41T/L162R/M171V/P40S/Q125H/Q178H/Q39Y/R42S/S66N/T106N/T262R/W38E/Y61H); assay: Cell-free REVEAL class II stability assay; details: half-life of peptide-MHC-II complex (h, capped at 120) x Binding Score / 100, conformational ELISA
In short: as §1

MHC-II DRB1*15:01 [5] = biological target: T5, MHC-II DRB1*15:01 (Homo sapiens, UniProt P01903+P01911); assay: Cell-free REVEAL class II stability assay; details: half-life of peptide-MHC-II complex (h, capped at 120) x Binding Score / 100, conformational ELISA
T5 construct: purchased ProImmune
In short: as §1

MHC-II DRB1*15:03 [6] = biological target: T6, MHC-II DRB1*15:03 (Homo sapiens, UniProt P01903+P01911, Y59H); assay: Cell-free REVEAL class II stability assay; details: half-life of peptide-MHC-II complex (h, capped at 120) x Binding Score / 100, conformational ELISA
T6 construct: purchased ProImmune
In short: as §1

MHC-II DRB1*11:01 [7] = biological target: T1, MHC-II DRB1*11:01; assay: Cell-free REVEAL class II binding assay; details: signal of test peptide as percentage of allele-specific positive control peptide, fluorescence, conformation-specific monoclonal antibody
In short: (§2)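 Test peptides incubated with MHC-II protein; correctly folded complexes then detected with a specific monoclonal antibody giving a fluorescence signal. Each peptide scored quantitatively against that allele's positive control epitope, expressed as a percentage.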

MHC-II DRB1*07:01 [8] = biological target: T2, MHC-II DRB1*07:01; assay: Cell-free REVEAL class II binding assay; details: signal of test peptide as percentage of allele-specific positive control peptide, fluorescence, conformation-specific monoclonal antibody
In short: as §2

MHC-II DRB1*04:01 [9] = biological target: T3, MHC-II DRB1*04:01; assay: Cell-free REVEAL class II binding assay; details: signal of test peptide as percentage of allele-specific positive control peptide, fluorescence, conformation-specific monoclonal antibody
In short: as §2

MHC-II DRB1*03:01 [10] = biological target: T4, MHC-II DRB1*03:01; assay: Cell-free REVEAL class II binding assay; details: signal of test peptide as percentage of allele-specific positive control peptide, fluorescence, conformation-specific monoclonal antibody
In short: as §2

MHC-II DRB1*15:01 [11] = biological target: T5, MHC-II DRB1*15:01; assay: Cell-free REVEAL class II binding assay; details: signal of test peptide as percentage of allele-specific positive control peptide, fluorescence, conformation-specific monoclonal antibody
In short: as §2

MHC-II DRB1*15:03 [12] = biological target: T6, MHC-II DRB1*15:03; assay: Cell-free REVEAL class II binding assay; details: signal of test peptide as percentage of allele-specific positive control peptide, fluorescence, conformation-specific monoclonal antibody
In short: as §2

T6 sequence (P01903 26-254, other chains not shown): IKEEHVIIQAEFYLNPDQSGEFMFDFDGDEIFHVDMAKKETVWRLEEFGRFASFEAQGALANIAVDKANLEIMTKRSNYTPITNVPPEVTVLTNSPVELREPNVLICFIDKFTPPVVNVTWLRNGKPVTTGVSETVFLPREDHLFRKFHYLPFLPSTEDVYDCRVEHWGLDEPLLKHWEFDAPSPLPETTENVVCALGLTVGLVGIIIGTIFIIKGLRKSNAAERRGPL
T1 sequence (P01903 26-254 limits assumed, other chains not shown): as the sequence (P01903 26-254, other chains not shown) above
T4 sequence (P01903 26-254 limits assumed, other chains not shown): as the sequence (P01903 26-254, other chains not shown) above

Row | Sequence | Stability Index (MHC-II DRB1*11:01 [1]) | Stability Index (MHC-II DRB1*07:01 [2]) | Stability Index (MHC-II DRB1*04:01 [3]) | Stability Index (MHC-II DRB1*03:01 [4]) | Stability Index (MHC-II DRB1*15:01 [5]) | Stability Index (MHC-II DRB1*15:03 [6]) | Binding Score (MHC-II DRB1*11:01 [7]) | Binding Score (MHC-II DRB1*07:01 [8]) | Binding Score (MHC-II DRB1*04:01 [9]) | Binding Score (MHC-II DRB1*03:01 [10]) | Binding Score (MHC-II DRB1*15:01 [11]) | Binding Score (MHC-II DRB1*15:03 [12])
1 | TRYLRIHPQSWVHQI [synthetic wild type FVIII 15 mer peptide] | 5.3 | 40.8 | 0.9 | 0.0 | 983.1 | 30.5 | 49.4% | 34.0% | 8.2% | 0.0% | 819.2% | 25.4%
2 | YISQFIIMYSLDGKK [synthetic wild type FVIII 15 mer peptide] | 33.1 | 0.0 | 30.9 | 0.2 | 723.1 | 1.7 | 114.1% | 0.0% | 44.5% | 1.8% | 602.6% | 1.4%
3 | GITDVRPLYSRRLPK [synthetic wild type FVIII 15 mer peptide, region of ns-SNP R484H] | 0.6 | 0.6 | 0.1 | 3.7 | 34.9 | 3.1 | 13.2% | 2.0% | 0.8% | 10.8% | 29.1% | 2.6%
